Data published in publication PMC2665256 (Biochemical and biophysical research communications, 2009).

Molecular target: acyl-coenzyme A:cholesterol acyltransferase (ACAT)
Format: biochemical, Mus musculus

Structure (SMILES) | IC50 [nM]
Cc1ccc(Cn2nc(C(=O)N[C@@H]3C(C)(C)[C@@H]4CC[C@@]3(C)C4)cc2-c2ccc(Cl)c(C)c2)cc1 [SR144528] | 3600 ± 1100
CCCCCCCCCC[Si](C)(C)CCC(=O)NC(Cc1ccc(C)cc1)c1ccccc1 (centres unmarked) [58-035] | 400 ± 200
